Data on 2 molecules can be found in patent US9499493B2, “2,4-pyrimidinediamine compounds and their uses” (Rigel Pharmaceuticals, Inc., priority 2002, dated 2016).

In one assay the test system is Jurkat cells. Kind of assay: Jurkat toxicity, Cell Titer Glo assay. The format is cell-based. Conditions: 18 hours incubation. The procedure: Seed 50 μl cells (1×10^6/ml) into each well containing 50 μl compound. […] Shake plates for 1 minute to mix cells and compound. Incubate plates at 37° C. […] Next day, harvest 50 μl cells from each well, add to 50 μl Cell Titer Glo reagent ([…]). Shake plates for 1 minute. Read on luminometer.
(ATP-based viability assays read luminescence as a measure of living cells.)

The test system of assay [1] is basophil cells. Briefly: Basophil ionomycin activation: histamine release assay. The format is cell-based, human. Conditions: Basophils. The procedure:
(§1) The basophil activation assay was carried out using whole human peripheral blood from donors allergic to dust mites with the majority of the red blood cells removed by dextran sedimentation. Human peripheral blood was mixed 1:1 with 3% dextran T500 and RBCs were allowed to settle for 20-25 min. The upper fraction was diluted with 3 volumes of D-PBS and cells were spun down for 10 min at 1500 rpm, RT. Supernatant was aspirated and cells were washed in an equal volume MT-buffer. Finally, cells were resuspended in MT-buffer containing 0.5% DMSO in the original blood volume. 80 uL cells were mixed with 20 uL compound in the presence of 0.5% DMSO, in triplicate, in a V-bottom 96-well tissue culture plate. A dose range of 8 compound concentrations was tested resulting in a 10-point dose response curve including maximum (stimulated) and minimum (unstimulated) response. […] The cells were stimulated for 30 minutes at 37° C., 5% CO2. The plate was spun for 10 min at 1500 rpm at room temperature and 80 uL the supernatant was harvested for histamine content analysis using the histamine ELISA kit supplied by Immunotech. The ELISA was performed according to supplier's instructions.
Assays for ionomycin-induced basophil cell degranulation were carried out as described for the Basophil IgE or Dustmite Activation Assay (Section 6.4.6, supra), with the exception that following incubation with compound, cells were stimulated with 20 μl of 2 μM ionomycin.

Assay [2] concerns bone marrow derived mast cells (BMMC). Briefly: BMMC high cell density IgE activation: LTC4. Format: cell-based, mouse. Particulars: anti-IgE, second part of TABLE 1. The essentials:
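IgE-sensitized BMMC (1-3×10^6 cells/ml, MT buffer) were pretreated with compound for 1 h at 37 °C in 0.5% DMSO, then stimulated with DNP-BSA (6× stimulus, 60 ng/ml) for 1 h. Supernatant was taken, and cells were re-incubated 4–5 h in WEI-conditioned medium with compound. Mediators were quantified by ELISA.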

Assay [3] relates to cultured human mast cells (CHMC). Kind of assay: CHMC high cell density IgE activation: histamine. Format: cell-based. Particulars: anti-IgE activation. The essentials:
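IgE-sensitized CHMC at 1-2×10^6 cells/ml were pretreated with compound for 1 h at 37 °C (0.5% DMSO final), then anti-IgE-stimulated for 1 h and supernatant collected. Hexosaminidase was read with a fluorogenic substrate. Pellets were re-incubated 7 h with compound before supernatant ELISAs.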

Assay [4] can be described thus: Sheep model of allergic asthma (Ascaris suum challenge). Conditions: aqueous suspension; for LAR and AHR (in words) / AHR (% inhibition) / EAR (% inhibition) / LAR (% inhibition): 45 mg/sheep; for LAR and AHR (in words): 60 minutes prior to allergen challenge; for AHR (% inhibition) / EAR (% inhibition) / LAR (% inhibition): pretreatment 60 min. The format is in vivo. The procedure:
Sheep develop bronchoconstriction within minutes of exposure to inhaled antigen (Ascaris suum), with maximal airflow obstruction during the early allergic response (EAR). Release of preformed mast cell mediators is likely responsible for this early phase of airflow obstruction. […] In the sheep, AHR develops a few hours following antigen challenge, and can persist for up to 2 weeks.
In the sheep model of allergic asthma, sheep are administered aerosols of test article via an endotracheal tube, followed by an aerosol challenge with antigen extracted from the roundworm, Ascaris suum, to which the sheep are naturally allergic. Allergen challenge leads to direct bronchoconstriction (both EAR and LAR) and a persistent non-specific AHR. These three characteristics are similar to those seen in human allergic asthmatics. The activity of the test agent is determined by changes in the lung resistance (RL), which is calculated from measurements of transpulmonary pressure, flow, and respiratory volume. […] The LAR is a less pronounced increase in RL, which starts approximately 5-6 hours following allergen challenge and is resolved by 8 hours post-challenge. Twenty-four hours after the challenge, a dose response to carbachol is measured to determine the AHR, which is expressed as the dose of carbachol required to increase RL by 400% over baseline. (This measurement is referred to as the provocative concentration of carbachol that elicits a 400% increase in RL over baseline (PC400). The data are compared to historical control data for the same individual when administered a saline control aerosol and challenged with Ascaris suum.

Assay [5] has as its system basophil cells. Kind of assay: Basophil dustmite activation: histamine release assay. Particulars: human basophils, house dustmite stimulus; second part of TABLE 1. The format is cell-based. The procedure: as §1

Several values for one entry are separate records, joined by “and”; a condition that tells them apart may be missing. Equal entries are not always repeated. Bounds are passed on as bounds.

For orientation: IC50 means the concentration needed to halve the response being measured. A high value points to lower potency. Regarding `CNC(=O)COc1cccc(Nc2ncc(F)c(Nc3ccc4c(c3)NCCO4)n2)c1` [R921219, N4-(1,4-Benzoxazin-6-yl)-5-fluoro-N2-[3-(N-methylamino)carbonylmethyleneoxyphenyl]-2,4-pyrimidinediamine], the IC50 with Jurkat cells is more than 10000 nM; with basophil cells [1], more than 10000 nM; in assay [2], 40 nM; in assay [3] it was 162 nM; in the assay with basophil cells [5], 20 nM. In addition, in assay [4], the “LAR and AHR (in words)” value is reported as “blocked”. Further, the “AHR (% inhibition)” value in assay [4] is reported as 90%. Besides, the “EAR (% inhibition)” value in assay [4] was 54% and 56%. Also, the “LAR (% inhibition)” value in assay [4] is listed as 75%. Moreover, the “EAR (in words)” value in assay [4] was “greatly reduced”.
Regarding `CNC(=O)COc1cccc(Nc2ncc(F)c(Nc3cccc(O)c3)n2)c1` [R926508, 5-Fluoro-N4-(3-hydroxyphenyl)-N2-[3-(N-methylamino)carbonylmethyleneoxyphenyl]-2,4-pyrimidinediamine], in the assay with Jurkat cells, the IC50 was more than 10000 nM. Besides, the IC50 in the assay with basophil cells [1] is more than 10000 nM. The molecule further registered an IC50 in assay [2] of 162 nM. The molecule further had an IC50 in assay [3] of 105 nM. Further, in assay [4], the “LAR and AHR (in words)” value was “blocked”; the “AHR (% inhibition)” value came to 88%; the “EAR (% inhibition)” value is recorded as 21%; the “LAR (% inhibition)” value was 90%. In assay [4], the “EAR (in words)” value was “greatly reduced”. Moreover, it took 54 nM to reach half-maximal inhibition with basophil cells [5] (IC50).
